Reference: a melting point compilation (Tetko et al.; mined from patent text by program, amines drawn as free bases though some values may be those of a salt)

Compound	melting point
CCOC(=O)C1Cn2c(nc3c(cnn3C)c2=O)S1 (stereo unspecified)	159 °C
O=c1nc(-c2ccccn2)sc2ccc(Br)cc12	253 to 254 °C
COc1cc2nc(N(C)C)nc(N)c2cc1OC	223 to 224 °C
COC(=O)CSc1nc(Oc2ccc(N3CCNCC3)cc2)ncc1[N+](=O)[O-]	193 to 195 °C
CCn1nc(OC2CSCCC2=O)c(-c2ccc(F)cc2)c1-c1ccc(S(C)(=O)=O)cc1 (stereo unspecified)	210 to 211 °C
COC(=O)[C@@H](OS(=O)(=O)c1ccc(C)cc1)[C@H](O)c1ccc(F)cc1	122 to 124 °C
CC1=C(c2cccc(C(F)(F)F)c2)n2ncc(C(N)=O)c2NC1	200 to 202 °C
CCCCCc1ccc(-c2ccc(-c3ccc(CC)cc3)cc2F)s1	44 °C
CCN(CC)c1ccc(S(=O)(=O)N2CCCC2=O)cc1	128 to 130 °C
CN1CCN(C(=O)OC2c3ccccc3C(=O)N2c2ccc3cnccc3n2)CC1 (stereo unspecified)	215 °C
O=C(NO)c1ccc(C(=O)NOCC2CCc3ccccc3C2)cc1 (stereo unspecified)	184 to 186 °C
CC1(C)Oc2c(c(=O)n(Cc3ccccc3)c3ccccc23)[C@@H](NC(=O)CCCCl)[C@@H]1O (relative stereo)	176 to 178 °C
CC(C)(C)c1ccc(S(=O)(=O)N2c3ccccc3C[C@H]2C(=O)NCc2cccc(OCCC(=O)O)c2)cc1	122 °C
CN(C)C1(c2cccc(F)c2)CCC(=CC(=O)NCCCc2ccccc2)CC1 (stereo unspecified)	129 to 131 °C
CCCCCCCCCCCCCCCCOCC1=CCCO1	30.5 to 31.5 °C
CC(=O)N1CCc2cc(S(=O)(=O)n3c(COC(C)(C)C(=O)O)cc4cc(C(F)(F)F)ccc43)ccc21	176 to 178 °C
O=C(Oc1cc(OC(=O)c2cc(O)cc(O)c2)c2ccccc2c1)c1cc(O)cc(O)c1	167 to 169 °C
CCc1cc(N(C)C(=O)N2CCN(c3cc(C)cc(C)c3)CC2)c(OC)nc1C	86 to 87 °C
CCOC(=O)c1cn(C2CC2)c2c(C)c(F)c(F)c(N)c2c1=O	182 to 186 °C
O=S(=O)(Cc1c(C(F)(F)F)nn(-c2ccccc2)c1O)c1ccccc1	122 to 123 °C
O=C1CCCC2=C1C(c1cccnc1)C1=C(CCS1)N2 (stereo unspecified)	> 250 °C
COC(=O)c1cccc2c1Nc1cc(I)ccc1C2	108 to 110 °C
COc1ccc(N(C(=O)CN2C(=O)CC(=O)N(c3ccncc3)c3ccccc32)C(C)C)cc1	211 to 213 °C
O=C1CCCn2c1cc1ccccc12	138 to 140 °C

Compound	melting point
OCc1nn(-c2ccc(F)cc2)c2c1CCCC2	117 to 118 °C
CC(C)Nc1nc(-n2cc(C(=O)O)c(=O)c3cc(F)c(F)c(Cl)c32)c(F)cc1F	226 to 230 °C
OC1CCn2c(CCc3ccccc3)nc3cccc1c32 (stereo unspecified)	125 to 126 °C
COCCOc1cc(OC)c2c(=O)[nH]c(-c3ccnc(C)c3)nc2c1	260 to 262 °C
Cn1nc2c(N)nc3c(c2c1CC(C)(C)O)CCCC3	228 to 234 °C
CC(C)(C)OC(=O)C(=[N+]=[N-])C(=O)C(SCc1ccccc1)C1CC(=O)N1 (stereo unspecified)	119 °C
COc1ccc2sc(Nc3ccc(OCCCl)cc3)nc2c1	176 to 178 °C
COC(=O)CCc1cc2cc(Cl)ccc2n1S(=O)(=O)c1ccc2nc(NC(C)=O)sc2c1	217 to 221 °C
Cn1nc2n(c1=O)-c1ccc(Cl)nc1C(c1ccccc1Cl)=NC2	200 to 202 °C
COc1cc2c(cc1OC)CC(NC(=O)C1CCC(=O)N1)CC2 (stereo unspecified)	195 to 196 °C
O=C(CCc1ccccc1)NC1CCC(=O)N2CCCC(C(=O)NC3CC(=O)OC3OCc3ccccc3)N2C1=O (stereo unspecified)	92 to 94 °C
CCOC(=O)C1(C(=O)OCC)CCC2(CC1)c1cc(OCC)c(OCC)cc1CCN2C(=O)OCc1ccccc1	88.4 to 89.1 °C
O=C(O)C1=Cc2cc(OC(F)(F)F)ccc2OC1C(F)(F)F (stereo unspecified)	118 to 120 °C
CCOC(=O)C1=C(C)Nc2ccnc(OC(C)C)c2C1c1ccccc1C(F)(F)F (stereo unspecified)	130 to 131 °C
O=CNCC1c2ccccc2C=Cc2ccccc21	115 to 118 °C
Oc1ccc2c(-c3cccc4ccc(O)cc34)noc2c1	262 to 264 °C
Cc1nc2c(CN3CCOCC3)cc(Cl)nn2c1C(=O)c1ccc(Cl)cc1F	145 to 147 °C
CCC(CC)(CC(=O)Nc1cccc(/C=C/c2nc(C3CCC3)cs2)c1)C(=O)O	170 to 172 °C
CN(C)Cc1nc(C=Cc2nc3ccc(F)cc3c(=O)n2-c2ccccc2F)cs1	163 to 165 °C
COc1ccc2c(c1)CCC1C2CCC2(C)C(NCc3ccccc3)CCC12 (stereo unspecified)	102 to 104 °C
CN(C)C1CCN(c2nc(N3CCOCC3)c3ncnc(N(CCC#N)Cc4ccccc4)c3n2)CC1	45 to 47 °C
Cn1ccnc1Sc1cccc(-c2nc(=O)c3ccccc3s2)n1	172 °C
O=C1CC(=O)OC(CCl)C1 (single isomer, unassigned; (-))	98 to 99 °C
O=C(c1ccc(F)cc1)c1ccc([N+](=O)[O-])cc1Cl	83 to 84 °C

Compound	melting point
N=c1sc2cc(OC(F)(F)F)ccc2n1CCSc1ccncc1	143 °C
CC(Oc1ccc(Oc2ncc(C(F)(F)F)cc2Cl)cc1)C(=O)Nc1ccc(OC(F)(F)F)cc1 (stereo unspecified)	140 to 141 °C
CC(C)(C)[C@@H](CO)NC(=O)[C@@H](CC(=O)O)n1ccc(-c2ccc(-c3ccc(C#N)cc3)cc2)c1	110 to 112 °C
NS(=O)(=O)c1cscn1	142 to 146 °C
CC(C)(C)OC(=O)N[C@@H](Cc1cc(F)cc(F)c1)C(=O)CCl	139 °C
CSc1nn(C)c(=O)n1-c1ccccc1Oc1ccccc1	129 to 130 °C
O=[N+]([O-])c1ccccc1S	40 to 42 °C
COc1cc(Nc2ncnc3cc(OCC4CCCCO4)c(OC)cc23)c(OC)cc1Cl (stereo unspecified)	203 to 209 °C
CN(C)c1ccc(C(O)C#Cc2ccncc2)cc1 (stereo unspecified)	117 °C
CCOC(=O)c1cnc2c(OC)cccc2c1Nc1ccc(O)cc1C	277 to 279 °C
O=C(O)c1cc(Cl)c(Cl)c(-c2ccc(Cl)cc2)n1	229 °C
CC(C)(C)OC(=O)N1CCCc2onc(O)c2C1	170 to 171 °C
CC1=C(c2ccccc2)C(=O)c2ccccc2C1=O	235 to 236 °C
CSc1nc(-c2nnn(C)n2)c(I)c(C(F)(F)F)n1	113 to 118 °C
COc1ccc(S(=O)(=O)C2(C(=O)NO)CCN(Cc3ccc(-c4ccccn4)cc3)CC2)cc1	214 °C
OC(Cn1cncn1)(c1ccc(Cl)cc1)C1(C2CC2)CC1 (stereo unspecified)	110 to 112 °C
FC(F)(F)c1cc(C(F)(F)F)c(-c2ccc(Cl)cc2)[nH]1	41 to 43 °C
Clc1ccc(CCCN2CCc3cc(OC[C@H]4CO[C@](Cn5ccnc5)(c5ccc(Cl)cc5)O4)ccc3C2)cc1 (racemic)	101 to 103 °C
O=C1CCC(N2C(=O)c3cccc(CNC(=O)c4ccc(F)c(C(F)(F)F)c4)c3C2=O)C(=O)N1 (stereo unspecified)	171 to 173 °C
CCOC(=O)C1=C(C)Nc2ncn(C(C)C)c(=O)c2C1c1ccccc1F (stereo unspecified)	178 to 180 °C
CCOC(=O)c1c(N)c(Cl)cn1C	48 °C
Cc1oc(-c2ccco2)nc1COc1ccc(COc2nn(Cc3ccccc3)cc2C(N)=O)cc1	139 to 140 °C
COC(=O)CCc1oc2ccc(C#N)cc2c1C(=O)c1ccc(OC)cc1	95 to 98 °C
CC(=O)Nc1ccc(F)c(-c2ccncc2)c1F	148 to 150 °C

Compound	melting point
CC12CCC3C(CC=C4C=C(OCc5ccccc5)CCC43C)C1CCC2=O (stereo unspecified)	172 to 178 °C
O=C(NCCO)c1ccc(-c2ccc3nnn(Cc4ccc5ncccc5c4)c3n2)cc1	> 260 °C
COc1cccc2c1C13CCN(C)C(C2)C1(O)CCC(=O)C3 (stereo unspecified)	191 to 193 °C
O=C1SC(Cc2ccc(OCCn3ccc4cccnc43)cc2)C(=O)N1C(c1ccccc1)(c1ccccc1)c1ccccc1 (stereo unspecified)	168 to 169 °C
CCCOc1ccccc1C(=O)Nc1cnccc1C(N)=O	181 to 183 °C
CCN(CC)C(=O)C=Cc1cc(OC)c(OC)c(OC)c1	132 °C
O=S1(=O)c2cccc3cccc(c23)N1CCN1CC=C(c2ccccc2)CC1	106 °C
CNc1nc(SC)ncc1C	134 °C
Nc1ccc(Oc2ccc(C3(c4ccc(Oc5ccc(N)cc5)cc4)CCC(c4ccccc4)CC3)cc2)cc1	90.7 to 92.2 °C
N#CCC=Cc1ccccc1S(N)(=O)=O	144 to 145 °C
Nc1nc(-c2ccncc2)nc2c1c([N+](=O)[O-])nn2C1CCCC1	239 to 241 °C
CC1(C)CC(OC(=O)c2ccc(CN(O)Cc3ccc(C(=O)OC4CC(C)(C)N(OC5CCCCC5)C(C)(C)C4)cc3)cc2)CC(C)(C)N1OC1CCCCC1	163 to 166 °C
CCn1nccc1C(=O)Nc1cc(Oc2ccc3nc(NC(=O)C4CC4)cn3n2)ccc1F	209 °C
Fc1cc(F)c(F)c(-c2c(Cl)nc3ncnn3c2Cl)c1	191 °C
CCCc1[nH]cnc1C=O	120 to 124 °C
CC(C)(C)C(=O)Nc1ccc2cc3c(cc2c1)CCCC3	202 to 204 °C
CC(=O)OCc1c(Br)cccc1N1Cc2cc(C(C)(C)C)ccc2C1=O	176 to 178 °C
O=C(O)c1ccc(OCCc2c(CCNS(=O)(=O)Cc3ccc(Cl)c(Cl)c3)n(C(c3ccccc3)c3ccccc3)c3ccc(Cl)cc23)cc1F	117 to 119 °C
Cc1c(CC(=O)O)c2ccccc2c(=O)n1Cc1ccc(Cl)c(Cl)c1	218 to 220 °C
N#Cc1c2c(nn1-c1ccc(Cl)cc1F)CCCC2	83 to 84 °C
CCNC(=O)c1cccc2c1c(=O)n(Cc1cccnc1)n2C(=O)OCC	197 to 198 °C
Cc1cc(-c2ccc(C(F)(F)F)cc2)cn2c(-c3nc(-c4cccc(S(N)(=O)=O)c4)no3)cnc12	326 °C
CC(=O)OCC1OC(n2c(Br)nc3cc(Cl)c(Cl)cc32)C(OC(C)=O)C1OC(C)=O (stereo unspecified)	< 65 °C
CC(C)c1cccc(C(C)C)c1NC(=O)CN1CC2(CCCCC2)N(c2ccccc2)S1(=O)=O	140 to 142 °C
